Assay results as given in paper PMC2533696 (PLoS Pathogens, 2008).
Where a SMILES comes first, the peptide text is derived from it. Where no end group is shown, it is not given here.

Key:
[1] = molecular target: BoNT/A; conditions: read-out: Kι; cited from earlier work
[2] = molecular target: Clostridium botulinum neurotoxin serotype A truncated light chain (residues 1 to 424), Balc424 (Clostridium botulinum, UniProt P0DPI0); experiment: biochemical; conditions: 37°C, 30 min
Sequence of Clostridium botulinum neurotoxin serotype A truncated light chain (residues 1 to 424), Balc424 (P0DPI0 1-424 limits assumed): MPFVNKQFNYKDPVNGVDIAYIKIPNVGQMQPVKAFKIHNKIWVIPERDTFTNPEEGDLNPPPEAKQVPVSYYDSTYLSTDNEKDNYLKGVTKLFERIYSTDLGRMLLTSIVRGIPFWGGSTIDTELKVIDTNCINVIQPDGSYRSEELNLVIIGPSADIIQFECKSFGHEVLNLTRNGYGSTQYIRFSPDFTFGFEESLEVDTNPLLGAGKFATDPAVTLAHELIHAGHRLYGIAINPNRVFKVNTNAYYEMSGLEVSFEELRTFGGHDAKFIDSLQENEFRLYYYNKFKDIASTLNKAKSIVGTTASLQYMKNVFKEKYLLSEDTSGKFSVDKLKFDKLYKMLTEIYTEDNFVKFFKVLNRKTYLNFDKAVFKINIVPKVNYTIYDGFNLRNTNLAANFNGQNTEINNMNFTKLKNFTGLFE

In the case of Ac-CRATKML, the Ki [1] is given as 1.9 µM.
With `CSCC[C@H](NC(=O)[C@H](CCCCN)NC(=O)[C@@H](NC(=O)[C@H](C)NC(=O)[C@H](CCCNC(=N)N)NC(=O)[C@@H](N)CCC(N)=O)[C@@H](C)O)C(N)=O` [QRATKM] (H-QRATKM-NH2) the IC50 [2] was 133 µM.
